Molecules are shown by their SMILES. Counter-ions that a name gives are not always drawn.

In one experiment the target is hNav1.7 (Homo sapiens (Human), UniProt Q15858). Put plainly: Tritiated sulfonamide competitive binding to membranes from cells expressing hNav1.7 and the β1 subunit.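 Note: Filter-bound radioactivity counted by liquid scintillation, nonspecific binding defined with excess unlabelled ligand, IC50 fitted to percent inhibition of specific binding.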
Chain of hNav1.7 (Q15858 other isoform, or with tags, fused parts or gaps): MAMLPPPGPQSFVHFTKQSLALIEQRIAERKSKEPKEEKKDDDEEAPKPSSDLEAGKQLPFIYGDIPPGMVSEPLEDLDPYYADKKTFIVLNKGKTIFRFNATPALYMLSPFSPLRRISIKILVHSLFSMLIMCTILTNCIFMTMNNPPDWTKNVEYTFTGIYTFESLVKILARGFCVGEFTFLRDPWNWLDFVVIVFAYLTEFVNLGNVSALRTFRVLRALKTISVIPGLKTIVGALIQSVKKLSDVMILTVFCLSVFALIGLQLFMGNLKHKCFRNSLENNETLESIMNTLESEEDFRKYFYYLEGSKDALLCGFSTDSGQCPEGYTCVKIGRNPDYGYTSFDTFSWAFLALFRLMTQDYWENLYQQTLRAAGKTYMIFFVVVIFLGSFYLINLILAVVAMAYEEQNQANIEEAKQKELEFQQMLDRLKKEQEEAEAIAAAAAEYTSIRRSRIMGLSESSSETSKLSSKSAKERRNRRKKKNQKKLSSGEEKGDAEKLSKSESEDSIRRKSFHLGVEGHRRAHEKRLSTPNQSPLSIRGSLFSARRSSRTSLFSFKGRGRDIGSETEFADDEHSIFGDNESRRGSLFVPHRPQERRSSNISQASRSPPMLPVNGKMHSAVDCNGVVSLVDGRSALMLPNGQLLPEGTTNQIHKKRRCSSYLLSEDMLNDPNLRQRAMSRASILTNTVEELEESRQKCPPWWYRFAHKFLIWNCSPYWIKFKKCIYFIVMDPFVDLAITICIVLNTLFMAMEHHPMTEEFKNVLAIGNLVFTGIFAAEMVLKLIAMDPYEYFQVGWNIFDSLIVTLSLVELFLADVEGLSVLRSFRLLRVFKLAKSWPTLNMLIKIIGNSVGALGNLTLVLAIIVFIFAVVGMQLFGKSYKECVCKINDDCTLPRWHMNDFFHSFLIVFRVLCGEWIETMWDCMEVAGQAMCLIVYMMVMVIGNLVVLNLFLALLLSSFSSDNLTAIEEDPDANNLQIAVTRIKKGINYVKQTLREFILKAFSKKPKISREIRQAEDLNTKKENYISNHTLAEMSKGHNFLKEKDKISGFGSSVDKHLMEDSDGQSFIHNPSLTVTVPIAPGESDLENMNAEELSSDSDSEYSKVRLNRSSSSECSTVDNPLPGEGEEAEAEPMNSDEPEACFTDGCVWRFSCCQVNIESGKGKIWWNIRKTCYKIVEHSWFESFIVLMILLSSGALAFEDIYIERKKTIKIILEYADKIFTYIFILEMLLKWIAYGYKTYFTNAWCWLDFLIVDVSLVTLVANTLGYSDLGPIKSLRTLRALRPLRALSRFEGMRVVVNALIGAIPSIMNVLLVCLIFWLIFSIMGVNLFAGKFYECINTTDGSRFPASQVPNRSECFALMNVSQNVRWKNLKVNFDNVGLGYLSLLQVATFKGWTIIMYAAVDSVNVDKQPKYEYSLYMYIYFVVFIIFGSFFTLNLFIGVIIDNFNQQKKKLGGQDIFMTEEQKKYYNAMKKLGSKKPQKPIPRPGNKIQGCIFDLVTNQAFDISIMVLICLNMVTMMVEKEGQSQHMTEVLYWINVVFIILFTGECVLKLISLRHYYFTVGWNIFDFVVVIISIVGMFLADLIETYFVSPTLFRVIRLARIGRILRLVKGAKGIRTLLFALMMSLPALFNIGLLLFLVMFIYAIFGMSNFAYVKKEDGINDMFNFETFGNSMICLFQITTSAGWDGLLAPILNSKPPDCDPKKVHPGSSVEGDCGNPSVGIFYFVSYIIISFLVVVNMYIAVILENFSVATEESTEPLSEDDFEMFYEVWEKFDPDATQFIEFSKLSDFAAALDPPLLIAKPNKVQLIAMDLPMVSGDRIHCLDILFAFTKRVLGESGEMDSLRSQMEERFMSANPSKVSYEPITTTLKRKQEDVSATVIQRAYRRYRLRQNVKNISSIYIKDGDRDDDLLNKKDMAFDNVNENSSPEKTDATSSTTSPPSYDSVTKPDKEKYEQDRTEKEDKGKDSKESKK
Chain of hNav1.7 (Q07699 19-218 partner): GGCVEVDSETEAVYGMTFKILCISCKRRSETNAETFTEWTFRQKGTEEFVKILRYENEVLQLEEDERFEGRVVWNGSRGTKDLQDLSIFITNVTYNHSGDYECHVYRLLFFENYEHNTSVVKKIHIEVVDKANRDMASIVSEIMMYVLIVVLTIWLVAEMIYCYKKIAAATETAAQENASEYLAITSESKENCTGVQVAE
Settings: not given
Molecule `O=C(NS(=O)(=O)C1CC1)c1cc(C2CC2)c(O[C@@H]2CCCN(Cc3ccc(Cl)c(Cl)c3)C2)cc1F` [Example 18, (R)-5-cyclopropyl-N-(cyclopropylsulfonyl)-4-((1-(3,4-dichlorobenzyl)-piperidin-3-yl)oxy)-2-fluorobenzamide] showed an IC50 of 2.6 nM.
Take `CS(=O)(=O)NC(=O)c1cc(C2CC2)c(O[C@@H]2CCCN(Cc3ccc(Cl)cc3Cl)C2)cc1F` [Example 29, (R)-5-cyclopropyl-4-((1-(2,4-dichlorobenzyl)piperidin-3-yl)oxy)-2-fluoro-N-(methylsulfonyl)benzamide]: the IC50 was found to be 1.7 nM.
Molecule `Cc1ccc(CN2CCC[C@@H](Oc3cc(F)c(C(=O)NS(=O)(=O)C4CC4)cc3C3CC3)C2)cc1` [Example 32, (R)-5-cyclopropyl-N-(cyclopropylsulfonyl)-2-fluoro-4-((1-(4-methylbenzyl)piperidin-3-yl)oxy)benzamide] yielded an IC50 of 5.4 nM.
`CS(=O)(=O)NC(=O)c1cc(C2CC2)c(CN2CCC(Oc3cc(C(F)(F)F)c(Cl)cn3)CC2)cc1F` [Example 521, 4-((4-((5-chloro-4-(trifluoromethyl)pyridin-2-yl)oxy)piperidin-1-yl)methyl)-5-cyclopropyl-2-fluoro-N-(methylsulfonyl)benzamide, trifluoroacetic acid salt] returned an IC50 of 7.9 nM.
With `O=C(NS(=O)(=O)C1CC1)c1cc(C2CC2)c(CN2CCC(S(=O)(=O)c3cc(Cl)cc(Cl)c3)CC2)cc1F` [Example 533, 5-cyclopropyl-N-(cyclopropylsulfonyl)-4-((4-((3,5-dichlorophenyl)sulfonyl)piperidin-1-yl)methyl)-2-fluorobenzamide, trifluoroacetic acid salt], the IC50 is 127 nM.
In turn, `CS(=O)(=O)NC(=O)c1cc(C2CC2)c(O[C@@H]2CCCN(Cc3c(Cl)cccc3Cl)C2)cc1F` [Example 10, (R)-5-cyclopropyl-4-((1-(2,6-dichlorobenzyl)piperidin-3-yl)oxy)-2-fluoro-N-(methylsulfonyl)benzamide] registered an IC50 of 4.1 nM.
Molecule `O=C(NS(=O)(=O)C1CC1)c1cc(C2CC2)c(CN2CCC([S+]([O-])c3cc(Cl)cc(Cl)c3)CC2)cc1F` (stereo not drawn) [Example 535, 5-cyclopropyl-N-(cyclopropylsulfonyl)-4-((4-((3,5-dichlorophenyl)sulfinyl)piperidin-1-yl)methyl)-2-fluorobenzamide, trifluoroacetic acid salt] returned an IC50 of 720 nM.

The same experiment, now with this note: read-out: Ligand Binding Assay; 100 pM [3H]compound, membranes with hNav1.7 and β1 subunit, 18 h, room temperature.
In the case of `O=C(NS(=O)(=O)C1CC1)c1cc(C2CC2)c(OCC2CCN(c3cc(C(F)(F)F)c(Cl)cn3)CC2)cc1F` [Example 555, 4-((1-(5-chloro-4-(trifluoromethyl)pyridin-2-yl)piperidin-4-yl)methoxy)-5-cyclopropyl-N-(cyclopropylsulfonyl)-2-fluorobenzamide], the IC50 was 2.9 nM.
Same read-out and setting: as for `C[C@@H](c1cc(F)cc(C(F)(F)F)c1)N1CCC(C)(COc2cc(F)c(C(=O)NS(C)(=O)=O)cc2C2CC2)CC1` (single isomer, unassigned) [Example 171], the figure is 5 nM.
On to `CS(=O)(=O)NC(=O)c1cc(C2CC2)c(OCC2CCN(Cc3cc(C(F)(F)F)ccc3Cl)CC2)cc1F` [Example 580, 4-((1-(2-chloro-5-(trifluoromethyl)benzyl)piperidin-4-yl)methoxy)-5-cyclopropyl-2-fluoro-N-(methylsulfonyl)benzamide], for which the IC50 was 3.7 nM.
For `C[C@H](c1cc(Cl)cc(Cl)c1F)N1CCC(COc2cc(F)c(C(=O)NS(C)(=O)=O)cc2C2CC2)CC1` (single isomer, unassigned) [Example 237], the IC50 came to 2.9 nM.
Turning to `C[C@H](c1ccc(F)cc1Cl)N1C[C@H]2C[C@@H]1[C@H](Oc1cc(F)c(C(=O)NS(C)(=O)=O)cc1C1CC1)C2` [Example 451, 4-(((1R,4s,6R)-2-((R)-1-(2-chloro-4-fluorophenyl)ethyl)-2-azabicyclo[2.2.1]heptan-6-yl)oxy)-5-cyclopropyl-2-fluoro-N-(methylsulfonyl)benzamide, trifluoroacetic acid salt], the IC50 worked out at 25.7 nM.
For the molecule `CCS(=O)(=O)NC(=O)c1cc(C2CC2)c(OCC2CCN([C@@H](C)c3ccc(Cl)cc3Cl)CC2)cc1F` [Example 285, (S)-5-cyclopropyl-4-((1-(1-(2,4-dichlorophenyl)ethyl)piperidin-4-yl)methoxy)-N-(ethylsulfonyl)-2-fluorobenzamide], the IC50 was 3.3 nM.
With `CC1(COc2cc(F)c(C(=O)NS(=O)(=O)C3CC3)cc2C2CC2)CN(c2ncc(C(F)(F)F)cc2Cl)C1` [Example 481, 4-((1-(3-chloro-5-(trifluoromethyl)pyridin-2-yl)-3-methylazetidin-3-yl)methoxy)-5-cyclopropyl-N-(cyclopropylsulfonyl)-2-fluorobenzamide], the IC50 was 3.1 nM.
Consider `CC(c1cc(Cl)cc(Cl)c1)N1CCC(COc2cc(F)c(C(=O)NS(=O)(=O)C3CC3)cc2C2CC2)CC1` (stereo not drawn) [Example 102, 5-Cyclopropyl-N-(cyclopropylsulfonyl)-4-((1-(1-(3,5-dichlorophenyl)-ethyl)piperidin-4-yl)methoxy)-2-fluorobenzamide], for which the IC50 stood at 2.54 nM.
For `CC1(COc2cc(F)c(C(=O)NS(=O)(=O)C3CC3)cc2C2CC2)CCN(c2cc(C(F)(F)F)c(Cl)cn2)CC1` [Example 557, 4-((1-(5-chloro-4-(trifluoromethyl)pyridin-2-yl)-4-methylpiperidin-4-yl)methoxy)-5-cyclopropyl-N-(cyclopropylsulfonyl)-2-fluorobenzamide], the IC50 came to 2.7 nM.
On to `CC(c1cc(F)cc(F)c1)N1CC(COc2cc(F)c(C(=O)NS(C)(=O)=O)cc2C2CC2)C1` (stereo not drawn) [Example 86, 5-Cyclopropyl-4-((1-(1-(3,5-difluorophenyl)ethyl)azetidin-3-yl)methoxy)-2-fluoro-N-(methylsulfonyl)benzamide], for which the IC50 amounted to 49.5 nM.
The same measure, in the same setting: as for `CCS(=O)(=O)NC(=O)c1cc(C2CC2)c(OCC2CCN([C@H](c3cc(Cl)cc(Cl)c3)C(C)(C)OC)CC2)cc1F` (single isomer, unassigned) [Example 207], the figure is 1.7 nM; as for `CS(=O)(=O)NC(=O)c1cc(C2CC2)c(OCC2CCN(Cc3ccccc3C(F)(F)F)CC2)cc1F` [Example 159, 5-Cyclopropyl-2-fluoro-N-(methylsulfonyl)-4-((1-(2-(trifluoromethyl)-benzyl)piperidin-4-yl)methoxy)benzamide], 5.42 nM; as for `Cc1ccc(CN2CCC[C@@H](Oc3cc(F)c(C(=O)NS(C)(=O)=O)cc3C3CC3)C2)c(Cl)c1` [Example 424, (R)-4-((1-(2-chloro-4-methylbenzyl)piperidin-3-yl)oxy)-5-cyclopropyl-2-fluoro-N-(methylsulfonyl)benzamide, trifluoroacetic acid salt], 2.5 nM.
Take `COCC(c1cc(Cl)cc(Cl)c1)N1CC(COc2cc(F)c(C(=O)NS(C)(=O)=O)cc2C2CC2)C1` (stereo not drawn) [Example 91, 5-Cyclopropyl-4-((1-(1-(3,5-dichlorophenyl)-2-methoxyethyl)azetidin-3-yl)methoxy)-2-fluoro-N-(methylsulfonyl)benzamide]: the IC50 worked out at 14.7 nM.
Consider `CCS(=O)(=O)NC(=O)c1cc(C2CC2)c(OCC2CCN(Cc3cc(Cl)cc(C(F)(F)F)c3)CC2)cc1F` [Example 216, 4-((1-(3-Chloro-5-(trifluoromethyl)benzyl)piperidin-4-yl)methoxy)-5-cyclopropyl-N-(ethylsulfonyl)-2-fluorobenzamide], for which the IC50 was determined as 5 nM.
As to `CCS(=O)(=O)NC(=O)c1cc(C2CC2)c(OCC2CCN([C@H](c3cc(Cl)cc(Cl)c3)C(F)F)CC2)cc1F` [Example 227, (R)-5-cyclopropyl-4-((1-(1-(3,5-dichlorophenyl)-2,2-difluoroethyl)piperidin-4-yl)methoxy)-N-(ethylsulfonyl)-2-fluorobenzamide], the IC50 was found to be 8.1 nM.
For `CS(=O)(=O)NC(=O)c1cc(C2CC2)c(OCC2CN(Cc3cc(F)cc(Cl)c3)C2)cc1F` [Example 75, 4-((1-(3-chloro-5-fluorobenzyl)azetidin-3-yl)methoxy)-5-cyclopropyl-2-fluoro-N-(methylsulfonyl)benzamide], the IC50 is 74 nM.
Turning to `C[C@@H](c1ccc(F)cc1Cl)N1C[C@H]2C[C@@H]1[C@H](Oc1cc(F)c(C(=O)NS(C)(=O)=O)cc1C1CC1)C2` [Example 450, 4-(((1R,4S,6R)-2-((S)-1-(2-chloro-4-fluorophenyl)ethyl)-2-azabicyclo[2.2.1]heptan-6-yl)oxy)-5-cyclopropyl-2-fluoro-N-(methylsulfonyl)benzamide, trifluoroacetic acid salt], the IC50 came out at 9.9 nM.
`CS(=O)(=O)NC(=O)c1cc(C2CC2)c(O[C@@H]2CCCN([C@H](c3ccc(F)cc3Cl)C(F)(F)F)C2)cc1F` (single isomer, unassigned) [Example 297]: the IC50 was found to be 10.8 nM.
For `O=C(NS(=O)(=O)C1CC1)c1cc(Cl)c(OCC2CCN(Cc3cc(Cl)cc(OC(F)(F)F)c3)CC2)cc1F` [Example 407, 5-chloro-4-((1-(3-chloro-5-(trifluoromethoxy)benzyl)piperidin-4-yl)methoxy)-N-(cyclopropylsulfonyl)-2-fluorobenzamide, trifluoroacetic acid salt], the IC50 is 6.7 nM.
On to `CS(=O)(=O)NC(=O)c1cc(C2CC2)c(OCC2CCN(Cc3cc(Cl)cc(OC(F)(F)F)c3)CC2)cc1F` [Example 136, 4-((1-(3-Chloro-5-(trifluoromethoxy)benzyl)piperidin-4-yl)methoxy)-5-cyclopropyl-2-fluoro-N-(methylsulfonyl)benzamide], for which the IC50 came out at 1.88 nM.
In the case of `CS(=O)(=O)NC(=O)c1cc(C2CC2)c(OCC2CCN(S(=O)(=O)c3cc(Cl)cc(Cl)c3)CC2)cc1F` [Example 273, 5-Cyclopropyl-4-((1-((3,5-dichlorophenyl)sulfonyl)piperidin-4-yl)methoxy)-2-fluoro-N-(methylsulfonyl)benzamide], the IC50 is 8.5 nM.
On to `CS(=O)(=O)NC(=O)c1cc(C2CC2)c(OCC2CCN(Cc3ccc(OC(F)(F)F)cc3)CC2)cc1F` [Example 135], for which the IC50 stood at 15.5 nM.
